Calls of active or inactive are those of the source. No cut-off for these calls is given here.
Columns and labels:
Erythrocyte [1] = experiment: Induction of eryptosis in human erythrocytes assessed as stimulation of ceramide formation at 10 uM after 48 hrs by FITC-based flow cytometry; assay type: functional, cell-based
Erythrocyte [2] = experiment: Induction of eryptosis in human erythrocytes assessed as hemolysis-mediated hemoglobin release at 1 uM after 48 hrs by photometric analysis; assay type: functional, cell-based
Erythrocyte [3] = experiment: Induction of apoptosis in human erythrocytes assessed as scrambling of the cell membrane at 0.5 to 10 uM after 48 hrs using Annexin V-FITC staining by confocal laser scanning microscopy in presence of Ca2+; assay type: functional, cell-based
Erythrocyte [4] = experiment: Induction of eryptosis in human erythrocytes assessed as decrease in intracellular ATP concentration at 10 uM after 48 hrs by luciferase-based luminometry; assay type: functional, cell-based
Erythrocyte [5] = experiment: Induction of eryptosis in human erythrocytes assessed as phospholipid scrambling of the cell membrane at >= 5 uM after 48 hrs using Annexin V-FITC staining by confocal laser scanning microscopy; assay type: functional, cell-based
Erythrocyte [6] = experiment: Induction of eryptosis in human erythrocytes assessed as phospholipid scrambling of the cell membrane at 10 uM after 48 hrs using Annexin V-FITC staining by confocal laser scanning microscopy in absence of Ca2+; assay type: functional, cell-based
Erythrocyte [7] = experiment: Induction of eryptosis in human erythrocytes assessed as cell shrinkage measuring decrease in forward scatter of the cells at 5 uM after 48 hrs by […] FACS analysis; assay type: functional
Erythrocyte [8] = experiment: Induction of eryptosis in human erythrocytes assessed as increase in cytosolic Ca2+ concentration at >= 5 uM after 48 hrs by fluo-3/AM-fluorescence-based FACS analysis; assay type: functional, cell-based

Activity (Erythrocyte [4]): inactive
Structure (SMILES): C[C@H]1[C@H](C)CC[C@]2(C(=O)O)CC[C@]3(C)C(=CC[C@@H]4[C@@]5(C)CC[C@H](O)C(C)(C)[C@@H]5CC[C@]43C)[C@H]12
Activity (Erythrocyte [1]): inactive | Activity (Erythrocyte [2]): Active | Activity (Erythrocyte [3]): Active | Activity (Erythrocyte [5]): Active | Activity (Erythrocyte [6]): inactive | Activity (Erythrocyte [7]): Active | Activity (Erythrocyte [8]): Active
